What is called IC50 is the concentration that gives 50% inhibition. Read a low IC50 as higher potency.

This note sets out measurements from ChEMBL document CHEMBL3621145, “Synthesis of imidazothiadiazolebenzimidazole conjugates as mitochondrial apoptosis inducers” (Medchemcomm, 2014).

Common to all, as to assay type: functional, cell-based
One test has as its system ME-180. Nature of the test: Anticancer activity against human ME180 cells by MTT assay. On the technique in general: Tetrazolium assays rely on reduction of a dye to a coloured formazan, in cell work by metabolically active cells.
In another test the test system is A-375. Nature of the test: Anticancer activity against human A375 cells by MTT assay.
Another test concerns DU-145. Put plainly: Anticancer activity against human DU145 cells by MTT assay.
Another test has as its system A549. Put plainly: Anticancer activity against human A549 cells by MTT assay.

As for `Cc1nn2c(-c3nc4ccccc4[nH]3)c(-c3ccc(F)cc3)nc2s1`, the IC50 with ME-180 is 18.1 µM; in the test on A-375, 22.2 µM; in the test on DU-145, more than 30 µM; with A549, more than 30 µM.

On to `COc1ccc(-c2nc3sc(C)nn3c2-c2nc3cc(C)c(C)cc3[nH]2)cc1`, for which the half-maximal inhibitory concentration (IC50) in the test on ME-180 stood at 12.3 µM; with A-375, 12.5 µM; in the test with DU-145, 23.3 µM; in the test on A549, 16.5 µM.

With `COc1ccc(-c2nc3sc(C)nn3c2-c2nc3cc(Cl)ccc3[nH]2)cc1`, the half-inhibitory concentration (IC50) in the test on ME-180 stood at 2.6 µM; in the test with A-375, 4.3 µM; in the test with DU-145, 15.8 µM; in the test on A549, 7.9 µM.

As for `Cc1nn2c(-c3nc4cc(F)ccc4[nH]3)c(-c3ccccc3)nc2s1`, the concentration for half-maximal inhibition (IC50) in the test with ME-180 was 15.7 µM; in the test on A-375, 18.1 µM; with DU-145, 16.9 µM; in the test with A549 it was more than 30 µM.

As to `Cc1nn2c(-c3nc4cc(C)c(C)cc4[nH]3)c(-c3ccc(F)cc3)nc2s1`, the IC50 is 6.1 µM in the test with ME-180, 7.6 µM with A-375, more than 30 µM in the test on DU-145 and more than 30 µM with A549.

Regarding `Cc1nn2c(-c3nc4cc(C(F)(F)F)ccc4[nH]3)c(-c3ccccc3)nc2s1`, the concentration for half-maximal inhibition (IC50) was found to be 3.9 µM with ME-180, 5.2 µM with A-375, 19.6 µM with DU-145 and 13.6 µM in the test with A549.

For the molecule `Cc1ccc2[nH]c(-c3c(-c4ccccc4)nc4sc(C)nn34)nc2c1`, the half-maximal inhibitory concentration (IC50) in the test on ME-180 was found to be 15.8 µM; with A-375, 20.4 µM; in the test with DU-145 it was 14.4 µM; in the test on A549, 12.5 µM.
